Assay type in all cases: functional
For assay [1], the system named is Candida albicans. The assay can be described thus: Antifungal activity against Candida albicans CPCC400616 measured after 24 hrs by broth microdilution assay. In general terms: Dilution methods test growth across graded concentrations, often in twofold steps.
Assay [2] concerns Candida albicans. The assay can be described thus: Antifungal activity against Candida albicans ATCC SC5314 measured after 24 hrs by broth microdilution assay.
A further assay deals with [Candida] zeylanoides. The assay can be described thus: Antifungal activity against Candida zeylanoides CMGCC2.3739 measured after 24 hrs by broth microdilution assay. The conditions noted are these: Dujonia zeylanoides.
In another assay the test system is Cryptococcus neoformans. The experiment in a line: Antifungal activity against Cryptococcus neoformans CMGCC2.3161 measured after 72 hrs by broth microdilution assay.
For another assay, the system named is Pichia kudriavzevii. The assay can be described thus: Antifungal activity against Candida krusei AS2.1045 measured after 24 hrs by broth microdilution assay.
The next assay has as its system Nakaseomyces glabratus. The assay can be described thus: Antifungal activity against Candida glabrata measured after 24 hrs by broth microdilution assay.
In the next assay the test system is Candida parapsilosis. The experiment in a line: Antifungal activity against Candida parapsilosis ATCC 22019 measured after 24 hrs by broth microdilution assay. To be noted: Lodderomyces parapsilosis.
For another assay, the system named is Aspergillus fumigatus. The assay can be described thus: Antifungal activity against Aspergillus fumigatus CMGCC3.7795 measured after 72 hrs by broth microdilution assay.
Assay [3] relates to Candida albicans. The assay can be described thus: Antifungal activity against fluconazole-resistant Candida albicans CaR assessed as inhibition of microbial growth after 24 hrs by broth microdilution method.
Assay [4] deals with Candida albicans. The experiment in a line: Antifungal activity against fluconazole-resistant Candida albicans 17# assessed as inhibition of microbial growth after 24 hrs by broth microdilution method.
The test system of assay [5] is Candida albicans. The experiment in a line: Antifungal activity against fluconazole-resistant Candida albicans 632 assessed as inhibition of microbial growth after 24 hrs by broth microdilution method.
Assay [6] concerns Candida albicans. The assay can be described thus: Antifungal activity against fluconazole-resistant Candida albicans 901 assessed as inhibition of microbial growth after 24 hrs by broth microdilution method.
Assay [7] deals with Candida albicans. The assay can be described thus: Antifungal activity against fluconazole-resistant Candida albicans 904 assessed as inhibition of microbial growth after 24 hrs by broth microdilution method.

In brackets after ≈: the same amount, converted by molar mass. Some results are limits rather than exact numbers.

In general, MIC refers to the lowest concentration found to suppress growth. `COc1ccc(C[Se]C(Cn2cncn2)c2ccc(F)cc2F)cc1` (centres undefined): the MIC in the assay on Candida albicans [1] turned out to be 1 µg/mL (≈ 2.45 µM); in the assay on Candida albicans [2], 2 µg/mL (≈ 4.9 µM); in assay [Candida] zeylanoides it was 32 µg/mL (≈ 78.4 µM); against Cryptococcus neoformans, 32 µg/mL (≈ 78.4 µM); in the assay on Pichia kudriavzevii it was 32 µg/mL (≈ 78.4 µM); in the assay on Nakaseomyces glabratus it was 2 µg/mL (≈ 4.9 µM). Moreover, the MIC against Candida parapsilosis is greater than 128 µg/mL; in the assay with Aspergillus fumigatus, 4 µg/mL (≈ 9.8 µM); with Candida albicans [3], 128 µg/mL; in the assay with Candida albicans [4], 64 µg/mL; with Candida albicans [5], greater than 128 µg/mL; in the assay with Candida albicans [6], greater than 128 µg/mL. Moreover, the MIC in the assay on Candida albicans [7] was greater than 128 µg/mL.

With `Clc1ccc(C[Se]C(Cn2cncn2)c2ccc(Cl)cc2Cl)c(Cl)c1` (centres undefined), the MIC against Candida albicans [1] came out at 0.25 µg/mL (≈ 0.521 µM); in the assay with Candida albicans [2] it was 0.25 µg/mL (≈ 0.521 µM); in assay [Candida] zeylanoides, 128 µg/mL (≈ 267 µM); in the assay on Cryptococcus neoformans, 64 µg/mL (≈ 133 µM); in the assay on Pichia kudriavzevii it was 128 µg/mL (≈ 267 µM); in the assay on Nakaseomyces glabratus, 0.5 µg/mL (≈ 1.04 µM). For the same compound, the MIC against Candida parapsilosis was 64 µg/mL (≈ 133 µM); in the assay with Aspergillus fumigatus, 16 µg/mL (≈ 33.3 µM); in the assay with Candida albicans [3], greater than 128 µg/mL; in the assay on Candida albicans [4], greater than 128 µg/mL; in the assay with Candida albicans [5], greater than 128 µg/mL; with Candida albicans [6], greater than 128 µg/mL. The MIC in the assay with Candida albicans [7] was greater than 128 µg/mL.

`Fc1ccc(C(Cn2cncn2)[Se]Cc2ccc(Cl)cc2)c(F)c1` (centres undefined): the MIC in the assay with Candida albicans [1] was determined as 0.13 µg/mL (≈ 0.315 µM); in the assay on Candida albicans [2], 0.13 µg/mL (≈ 0.315 µM); in assay [Candida] zeylanoides it was 4 µg/mL (≈ 9.69 µM); in the assay with Cryptococcus neoformans, 4 µg/mL (≈ 9.69 µM); against Pichia kudriavzevii it was 128 µg/mL (≈ 310 µM); against Nakaseomyces glabratus, 0.5 µg/mL (≈ 1.21 µM). Besides, the minimal inhibitory concentration (MIC) is 64 µg/mL (≈ 155 µM) in the assay with Candida parapsilosis; 8 µg/mL (≈ 19.4 µM) against Aspergillus fumigatus; 128 µg/mL in the assay on Candida albicans [3]; 16 µg/mL in the assay with Candida albicans [4]; greater than 128 µg/mL with Candida albicans [5]; 4 µg/mL in the assay on Candida albicans [6]. Moreover, the MIC with Candida albicans [7] came out at 8 µg/mL.

As to `Clc1ccc(C(Cn2cncn2)[Se]Cc2ccccc2)c(Cl)c1` (centres undefined), the MIC against Candida albicans [1] was 0.13 µg/mL (≈ 0.316 µM); in the assay with Candida albicans [2], 0.13 µg/mL (≈ 0.316 µM); in assay [Candida] zeylanoides, 64 µg/mL (≈ 156 µM); against Cryptococcus neoformans, 2 µg/mL (≈ 4.86 µM); with Pichia kudriavzevii it was 128 µg/mL (≈ 311 µM); with Nakaseomyces glabratus it was 4 µg/mL (≈ 9.73 µM). The MIC in the assay on Candida parapsilosis is 32 µg/mL (≈ 77.8 µM); in the assay on Aspergillus fumigatus, 16 µg/mL (≈ 38.9 µM); with Candida albicans [3] it was greater than 128 µg/mL; in the assay on Candida albicans [4] it was 64 µg/mL; with Candida albicans [5], greater than 128 µg/mL; with Candida albicans [6] it was greater than 128 µg/mL. The MIC with Candida albicans [7] is greater than 128 µg/mL.

Consider `Fc1ccc(C(Cn2cncn2)[Se]Cc2ccccc2Cl)c(F)c1` (centres undefined), for which the minimal inhibitory concentration (MIC) turned out to be 0.03 µg/mL (≈ 0.0727 µM) with Candida albicans [1]; 0.13 µg/mL (≈ 0.315 µM) against Candida albicans [2]; 1 µg/mL (≈ 2.42 µM) in assay [Candida] zeylanoides; 2 µg/mL (≈ 4.85 µM) against Cryptococcus neoformans; 2 µg/mL (≈ 4.85 µM) in the assay with Pichia kudriavzevii; 2 µg/mL (≈ 4.85 µM) in the assay on Nakaseomyces glabratus. Further, the minimal inhibitory concentration (MIC) came to 0.5 µg/mL (≈ 1.21 µM) in the assay with Candida parapsilosis; 8 µg/mL (≈ 19.4 µM) in the assay with Aspergillus fumigatus; 32 µg/mL in the assay on Candida albicans [3]; 4 µg/mL in the assay with Candida albicans [4]; 8 µg/mL in the assay on Candida albicans [5]; 4 µg/mL with Candida albicans [6]. In addition, the MIC with Candida albicans [7] came out at 2 µg/mL.

As for `Fc1ccc(C(Cn2cncn2)[Se]Cc2ccc(Cl)cc2Cl)c(F)c1` (centres undefined), the MIC amounted to 0.13 µg/mL (≈ 0.291 µM) against Candida albicans [1]; 0.06 µg/mL (≈ 0.134 µM) with Candida albicans [2]; 64 µg/mL (≈ 143 µM) in assay [Candida] zeylanoides; 4 µg/mL (≈ 8.95 µM) against Cryptococcus neoformans; 128 µg/mL (≈ 286 µM) in the assay with Pichia kudriavzevii; 2 µg/mL (≈ 4.47 µM) in the assay on Nakaseomyces glabratus. Also, the MIC was greater than 128 µg/mL with Candida parapsilosis; 16 µg/mL (≈ 35.8 µM) in the assay with Aspergillus fumigatus; greater than 128 µg/mL in the assay on Candida albicans [3]; 64 µg/mL in the assay on Candida albicans [4]; greater than 128 µg/mL in the assay with Candida albicans [5]; greater than 128 µg/mL in the assay with Candida albicans [6]. Moreover, in the assay on Candida albicans [7], the MIC is greater than 128 µg/mL.

As to `Fc1ccc(C(Cn2cncn2)[Se]Cc2ccccc2)c(F)c1` (centres undefined), the MIC worked out at 0.5 µg/mL (≈ 1.32 µM) against Candida albicans [1]; 0.06 µg/mL (≈ 0.159 µM) against Candida albicans [2]; 8 µg/mL (≈ 21.1 µM) in assay [Candida] zeylanoides; 4 µg/mL (≈ 10.6 µM) against Cryptococcus neoformans; 4 µg/mL (≈ 10.6 µM) with Pichia kudriavzevii; 2 µg/mL (≈ 5.29 µM) with Nakaseomyces glabratus. Moreover, the minimal inhibitory concentration (MIC) against Candida parapsilosis was 16 µg/mL (≈ 42.3 µM); in the assay on Aspergillus fumigatus it was 8 µg/mL (≈ 21.1 µM); in the assay on Candida albicans [3], 128 µg/mL; in the assay on Candida albicans [4], 32 µg/mL; in the assay on Candida albicans [5] it was greater than 128 µg/mL; in the assay with Candida albicans [6], 16 µg/mL. The MIC with Candida albicans [7] was 16 µg/mL.

For `Fc1ccc(C[Se]C(Cn2cncn2)c2ccc(F)cc2F)cc1` (centres undefined), the MIC against Candida albicans [1] amounted to 1 µg/mL (≈ 2.52 µM); against Candida albicans [2], 0.25 µg/mL (≈ 0.631 µM); in assay [Candida] zeylanoides it was 4 µg/mL (≈ 10.1 µM); in the assay with Cryptococcus neoformans, 0.5 µg/mL (≈ 1.26 µM); against Pichia kudriavzevii it was 8 µg/mL (≈ 20.2 µM); against Nakaseomyces glabratus, 2 µg/mL (≈ 5.05 µM). The MIC in the assay on Candida parapsilosis was 32 µg/mL (≈ 80.8 µM); against Aspergillus fumigatus, 8 µg/mL (≈ 20.2 µM); in the assay with Candida albicans [3], 128 µg/mL; in the assay with Candida albicans [4] it was 32 µg/mL; in the assay with Candida albicans [5], greater than 128 µg/mL; in the assay with Candida albicans [6], greater than 128 µg/mL. For the same compound, the MIC with Candida albicans [7] is 64 µg/mL.

(Values after ChEMBL document CHEMBL4813985, “Lead optimization generates selenium-containing miconazole CYP51 inhibitors with improved pharmacological profile for the treatment of fungal infections” (Eur J Med Chem, 2021).)
